Measurements as given in BindingDB's records for doi:10.1016/j.ejmech.2013.04.003 (Seoul National University, 2013).

Assays:
[1] = target: T1, Transient receptor potential cation channel subfamily V member 1 (Homo sapiens, UniProt Q8NER1); assay: Antagonist activity at human TRPV1 expressed in CHOK1 cells assessed as inhibition of capsaicin-induced activity by FLIPR assay
[2] = target: T1, Transient receptor potential cation channel subfamily V member 1; assay: Antagonist activity at human TRPV1 expressed in CHOK1 cells assessed as inhibition of pH 6 to 6.3-induced activity by FLIPR assay

T1 sequence (Q8NER1 whole entry): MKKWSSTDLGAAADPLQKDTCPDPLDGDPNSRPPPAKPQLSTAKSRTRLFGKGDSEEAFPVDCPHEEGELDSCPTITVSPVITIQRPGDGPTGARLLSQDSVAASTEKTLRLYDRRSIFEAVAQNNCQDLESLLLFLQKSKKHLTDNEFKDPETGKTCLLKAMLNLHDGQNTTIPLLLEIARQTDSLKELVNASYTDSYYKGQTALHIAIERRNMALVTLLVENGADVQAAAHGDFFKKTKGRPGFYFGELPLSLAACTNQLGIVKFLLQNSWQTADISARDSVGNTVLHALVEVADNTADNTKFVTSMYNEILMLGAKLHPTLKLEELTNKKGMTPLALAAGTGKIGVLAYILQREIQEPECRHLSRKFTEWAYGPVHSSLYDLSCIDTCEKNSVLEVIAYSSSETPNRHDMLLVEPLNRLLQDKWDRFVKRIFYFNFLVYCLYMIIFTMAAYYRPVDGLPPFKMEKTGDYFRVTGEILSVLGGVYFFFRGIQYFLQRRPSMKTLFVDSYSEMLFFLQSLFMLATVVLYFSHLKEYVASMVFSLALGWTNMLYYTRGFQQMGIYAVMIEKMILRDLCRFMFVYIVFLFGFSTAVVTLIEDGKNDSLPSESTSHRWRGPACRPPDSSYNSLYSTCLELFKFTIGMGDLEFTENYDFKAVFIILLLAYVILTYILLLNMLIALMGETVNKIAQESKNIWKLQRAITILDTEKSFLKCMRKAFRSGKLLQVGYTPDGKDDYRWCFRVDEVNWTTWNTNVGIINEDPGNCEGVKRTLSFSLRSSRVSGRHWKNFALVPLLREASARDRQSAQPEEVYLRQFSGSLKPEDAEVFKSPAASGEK

Ki [1]: 1.5 nM
IC50 [2]: 161 nM
Structure (SMILES): CC(C(=O)NCc1ccc(C(F)(F)F)nc1OCCCOc1ccccc1)c1ccc(NS(C)(=O)=O)c(F)c1 (configuration not stated)
